Earlier results in article PMC4931242, “Enhancing digestibility and ethanol yield of Populus wood via expression of an engineered monolignol 4-O-methyltransferase” (Nature Communications, 2016).

Molecular target: T1, MOMT4 (engineered monolignol 4-O-methyltransferase) (Clarkia breweri, UniProt O04385, T133L/E165I/H169F/F175I)
T1 construct: gene IEMT1; engineered quadruple active-site variant of isoeugenol 4-O-methyltransferase; purified enzyme
Assay: 4-O-methylation kinetics
Format: biochemical
Settings: co-substrate SAM; s.d., n=3

T1 sequence (O04385 whole entry T133L/E165I/H169F/F175I): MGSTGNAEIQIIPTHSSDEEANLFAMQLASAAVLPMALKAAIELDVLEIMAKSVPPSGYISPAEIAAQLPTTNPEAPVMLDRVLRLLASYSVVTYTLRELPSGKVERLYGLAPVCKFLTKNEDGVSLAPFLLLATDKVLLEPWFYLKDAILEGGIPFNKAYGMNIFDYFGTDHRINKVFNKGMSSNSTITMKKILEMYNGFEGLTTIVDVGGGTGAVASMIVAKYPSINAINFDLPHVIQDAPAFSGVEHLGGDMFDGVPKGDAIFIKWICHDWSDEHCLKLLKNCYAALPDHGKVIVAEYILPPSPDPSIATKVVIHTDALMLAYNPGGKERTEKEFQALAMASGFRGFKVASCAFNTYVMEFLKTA

| Km | Structure (SMILES) |
| --- | --- |
| 193 ± 24.5 µM | COc1cc(/C=C/CO)ccc1O [coniferyl alcohol] |
| 68.1 ± 11.1 µM | COc1cc(/C=C/CO)cc(OC)c1O [sinapyl alcohol] |
